Results as given in patent US20140135220A1, “Methods for post emergent weed control with Pyroxasulfone and Lactofen” (Valent U.S.A., Corporation, priority 2012, published 2014).

Tests used:
Palmer Amaranth [1] = assay: Example 1: post emergence treatments on field plots with Palmer Amaranth; format: in vivo; conditions: COC 1% v/v
Text: In order to determine the efficacy of combinations of pyroxasulfone and lactofen, numerous treatments were applied to plots in an area with abundant Palmer Amaranth growth. Treatments were applied to Palmer that were between 1 and 2 inches tall with a water volume of 20 gallons per acre applied at 35 PSI with a ground speed of 3 MPH. Treatments were repeated 10 days after the first application on another set of plots with Palmer 3 to 12 inches tall with a water volume of 20 gallons per acre applied at 35 PSI with a ground speed of 3 MPH.
The number of living Palmer Amaranth plants was evaluated at 7, 18, 24, and 38 days following the first treatment and 8, 14, and 28 days following the second treatment. Effect of Pyroxasulfone and Lactofen Treatments on Palmer Amaranth.”

Soybeans = assay: Example 2: phytotoxicity of the treatments on soybeans; conditions: soybean, in vivo, 28 days after treatment
Text: (§1) In order to determine the efficacy of combinations of pyroxasulfone and lactofen, numerous treatments were applied to plots in an area with abundant Palmer Amaranth and Ivyleaf Morning Glory growth. Soybeans were planted approximately 22 days before treatment. Treatments were applied with a backpack sprayer with a size 6 nozzle at a pace of 3 miles per hour during dry conditions. Each treatment was done in triplicate. Treatments were applied with a water volume of 20 gallons per acre applied at 40 PSI with a ground speed of 3 MPH. At the time of treatment, Palmer Amaranth plants were approximately 2 to 6 inches tall, and Ivyleaf Morning Glory was approximately 3 to 6 inches tall. Effect of Pyroxasulfone and Lactofen Treatments on Palmer Amaranth” and “Table 3. Effect of Pyroxasulfone and Lactofen Treatments on Ivyleaf Morning Glory.”
Applicants also evaluated the phototoxicity of the treatments on soybeans. […] Effect of Pyroxasulfone and Lactofen Treatments on Soybeans,” there were no phytotoxic effects 28 days following treatments.

Ivyleaf Morning Glory = assay: Example 2: post emergence treatments on soybean plots, control of Ivyleaf Morning Glory; format: in vivo; design: scale not given here
Text: as §1

Palmer Amaranth [2] = assay: Example 2: post emergence treatments on soybean plots, control of Palmer Amaranth; format: in vivo; design: scale not given here
Text: as §1

weeds = conditions: as a post emergence treatment, applied alone; previous studies; cited from earlier work
[3] = plot 2, Pyroxasulfone 0.213 lb ai/a

CCOC(=O)C(C)OC(=O)c1cc(Oc2ccc(C(F)(F)F)cc2Cl)ccc1[N+](=O)[O-] (racemic) [Lactofen, ethyl O-[5-(2-chloro-α,α,α-trifluoro-p-tolyloxy)-2-nitrobenzoyl]-DL-lactate]
Palmer Amaranth (% Control) 7 DAT (Palmer Amaranth [1]; plot 3, Lactofen 12.5 fl oz/a): 66.0% | Palmer Amaranth (% Control) 8/18 DAT (Palmer Amaranth [1]; plot 3, Lactofen 12.5 fl oz/a): 97.7% | Palmer Amaranth (% Control) 14/24 DAT (Palmer Amaranth [1]; plot 3, Lactofen 12.5 fl oz/a): 97.7% | Palmer Amaranth (% Control) 28/38 DAT (Palmer Amaranth [1]; plot 3, Lactofen 12.5 fl oz/a): 99.0% | Effect on Soybeans (phytotoxicity) 28 DAT (Soybeans): 0.0 | Effect on Ivyleaf Morning Glory 6 DAT (Ivyleaf Morning Glory; plot 8, Lactofen 8 fl oz/a): 61.7 | Effect on Ivyleaf Morning Glory 14 DAT (Ivyleaf Morning Glory; plot 8, Lactofen 8 fl oz/a): 48.3 | Effect on Ivyleaf Morning Glory 28 DAT (Ivyleaf Morning Glory; plot 8, Lactofen 8 fl oz/a): 20.0 | Effect on Ivyleaf Morning Glory 6 DAT (Ivyleaf Morning Glory; plot 9, Lactofen 10.0 fl oz/a): 71.7 | Effect on Ivyleaf Morning Glory 14 DAT (Ivyleaf Morning Glory; plot 9, Lactofen 10.0 fl oz/a): 58.3 | Effect on Ivyleaf Morning Glory 28 DAT (Ivyleaf Morning Glory; plot 9, Lactofen 10.0 fl oz/a): 20.0 | Effect on Ivyleaf Morning Glory 6 DAT (Ivyleaf Morning Glory; plot 10, Lactofen 12.5 fl oz/a): 68.3 | Effect on Ivyleaf Morning Glory 14 DAT (Ivyleaf Morning Glory; plot 10, Lactofen 12.5 fl oz/a): 56.7 | Effect on Ivyleaf Morning Glory 28 DAT (Ivyleaf Morning Glory; plot 10, Lactofen 12.5 fl oz/a): 23.3 | Effect on Palmer Amaranth 6 DAT (Palmer Amaranth [2]; plot 8, Lactofen 8 fl oz/a): 86.7 | Effect on Palmer Amaranth 14 DAT (Palmer Amaranth [2]; plot 8, Lactofen 8 fl oz/a): 65.0 | Effect on Palmer Amaranth 28 DAT (Palmer Amaranth [2]; plot 8, Lactofen 8 fl oz/a): 46.7 | Effect on Palmer Amaranth 6 DAT (Palmer Amaranth [2]; plot 9, Lactofen 10.0 fl oz/a): 84.7 | Effect on Palmer Amaranth 14 DAT (Palmer Amaranth [2]; plot 9, Lactofen 10.0 fl oz/a): 68.3 | Effect on Palmer Amaranth 28 DAT (Palmer Amaranth [2]; plot 9, Lactofen 10.0 fl oz/a): 46.7 | Effect on Palmer Amaranth 6 DAT (Palmer Amaranth [2]; plot 10, Lactofen 12.5 fl oz/a): 85.0 | Effect on Palmer Amaranth 14 DAT (Palmer Amaranth [2]; plot 10, Lactofen 12.5 fl oz/a): 71.7 | Effect on Palmer Amaranth 28 DAT (Palmer Amaranth [2]; plot 10, Lactofen 12.5 fl oz/a): 43.3

Cn1nc(C(F)(F)F)c(CS(=O)(=O)C2=NOC(C)(C)C2)c1OC(F)F [Pyroxasulfone, 5-(difluoromethoxy)-1-methyl-3-(trifluoromethyl)pyrazol-4-ylmethyl 4,5-dihydro-5,5-dimethyl-1,2-oxazol-3-yl sulfone]
Palmer Amaranth (% Control) 7 DAT (Palmer Amaranth [1]; [3]): 66.9% | Palmer Amaranth (% Control) 8/18 DAT (Palmer Amaranth [1]; [3]): 85.0% | Palmer Amaranth (% Control) 14/24 DAT (Palmer Amaranth [1]; [3]): 45.0% | Palmer Amaranth (% Control) 28/38 DAT (Palmer Amaranth [1]; [3]): 61.7% | post emergence activity (weeds): poor activity
